The values that follow come from patent publication US9856279B2 (AGIOS PHARMACEUTICALS, INC, priority 2011, dated 2018).

Broadly, the IC50 is the concentration needed to halve the response being measured.

Structures are written as SMILES. Some results are limits rather than exact numbers.

One assay addresses IDH1 R132H (Homo sapiens, UniProt O75874, R132H). As to the kind of experiment: Assay for IDH1 R132H inhibitors (NADPH/aKG, resazurin detection). In kind it is biochemical. Particulars: enzyme assay of Example 12; read-out: IDH1R132H IC50. The procedure, abridged:
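Compound added to substrate mix (8 uM NADPH, 2 mM aKG), then enzyme mix (0.2 μg/ml IDH1 R132H); 50 min RT in 20 mM Tris pH 7.5, 150 mM NaCl, 10 mM MgCl2, 0.03% BSA. Resazurin detection mix (30 μM) 5 min RT; resorufin fluorescence Ex544/Em590.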
In general terms: Alamar Blue is a resazurin reagent that responds to reducing activity.

In another assay the test system is HT1080 cells. Description: Cellular assay for IDH1m inhibitors: inhibition of 2-HG production (LC-MS, 48 hours) in HT1080 cells. It is filed as cell-based. Particulars: Homo sapiens, HT-1080; inhibition of 2-HG production, HT1080 cells; read-out: HT1080 IC50. Summed up:
(§1)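 HT1080 or U87MG cells were seeded at 5000/well in DMEM with 10% FBS, incubated overnight, then treated with compounds (0.2% DMSO final) for 48 h. Medium 2-HG was quantified by LC-MS, and IC50 was taken as the concentration reducing 2-HG by 50% versus DMSO control.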

In another assay the test system is U87MG cells. Description: Cellular assay for IDH1m inhibitors: inhibition of 2-HG production (LC-MS, 48 hours) in U87MG cells. It is filed as cell-based. Conditions: Homo sapiens, U-87 MG, inhibition of 2-HG production, U87R132H cells; read-out: U87R132H IC50. Summed up: as §1

IDH1 R132H, sequence (O75874 whole entry R132H): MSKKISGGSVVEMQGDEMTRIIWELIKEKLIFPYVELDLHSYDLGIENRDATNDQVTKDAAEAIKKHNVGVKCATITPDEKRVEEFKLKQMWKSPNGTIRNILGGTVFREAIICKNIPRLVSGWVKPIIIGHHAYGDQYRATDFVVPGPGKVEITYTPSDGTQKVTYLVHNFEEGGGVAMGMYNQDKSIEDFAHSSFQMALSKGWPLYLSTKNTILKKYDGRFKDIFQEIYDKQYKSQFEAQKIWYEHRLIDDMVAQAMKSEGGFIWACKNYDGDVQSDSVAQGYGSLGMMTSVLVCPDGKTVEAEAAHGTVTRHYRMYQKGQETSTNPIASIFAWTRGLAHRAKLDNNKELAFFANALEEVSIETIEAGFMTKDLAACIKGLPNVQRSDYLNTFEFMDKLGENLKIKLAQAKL

For the compound `C=Cc1cnnc(-c2c(C3CC3)nc(N3CCN(C(=O)C[C@H]4CCO4)[C@H](C4CC4)C3)c(C#N)c2C)c1` [Compound 768, 6-cyclopropyl-2-((R)-3-cyclopropyl-4-(2-((R)-oxetan-2-yl)acetyl)piperazin-1-yl)-4-methyl-5-(5-vinylpyridazin-3-yl)nicotinonitrile], the IC50 at IDH1 R132H, in the assay with HT1080 cells and with U87MG cells was under 500 nM each time.

Turning to `COCCC(=O)N1CCN(c2nc(C3CC3)c(-c3cccc4cccnc34)cc2C#N)C[C@H]1C` [Compound 342, (R)-6-cyclopropyl-2-(4-(3-methoxypropanoyl)-3-methylpiperazin-1-yl)-5-(quinolin-8-yl)nicotinonitrile], the IC50 at IDH1 R132H, with HT1080 cells and in the assay with U87MG cells was under 500 nM each time.

On to `C=Cc1cc(-c2cc(C#N)c(N3CCN(C(=O)COC)[C@H](C4CC4)C3)nc2C2CC2)ccn1` [Compound 590, (R)-2-cyclopropyl-6-(3-cyclopropyl-4-(2-methoxyacetyl)piperazin-1-yl)-2′-vinyl-3,4′-bipyridine-5-carbonitrile], for which the IC50 on IDH1 R132H, in the assay with HT1080 cells and in the assay with U87MG cells was under 500 nM each time.

As for `COCCC(=O)N1CCN(c2nc(C3CC3)c(-c3cnnc(OS(=O)(=O)C(F)(F)F)c3)cc2C#N)C[C@H]1C1CC1` [Compound 675, (R)-5-(5-cyano-2-cyclopropyl-6-(3-cyclopropyl-4-(3-methoxypropanoyl)piperazin-1-yl)pyridin-3-yl)pyridazin-3-yl trifluoromethanesulfonate], the IC50 on IDH1 R132H is under 500 nM; in the assay on HT1080 cells it was 1000 to 10000 nM; with U87MG cells it was 500 to 1000 nM.

As to `C=Cc1ncc2c(-c3cc(C#N)c(N4CCN(C(=O)CCOC)[C@H](C)C4)nc3C3CC3)cccc2n1` [Compound 603, (R)-6-cyclopropyl-2-(4-(3-methoxypropanoyl)-3-methylpiperazin-1-yl)-5-(2-vinylquinazolin-5-yl)nicotinonitrile], the IC50 on IDH1 R132H, with HT1080 cells and with U87MG cells was under 500 nM each time.

Regarding `C=Cc1cc(Oc2cc(C#N)c(N3CCN(C(=O)CCOC)[C@H](C4CC4)C3)nc2C2CC2)ccn1` [Compound 693, (R)-6-cyclopropyl-2-(3-cyclopropyl-4-(3-methoxypropanoyl)piperazin-1-yl)-5-(2-vinylpyridin-4-yloxy)nicotinonitrile], the IC50 at IDH1 R132H, in the assay on HT1080 cells and in the assay with U87MG cells was under 500 nM throughout.

On to `COCCC(=O)N1CCN(c2nc(C(C)C)c(OCCNC(=O)OCc3ccccc3)cc2C#N)C[C@H]1C` [Compound 272, (R)-benzyl 2-(5-cyano-2-isopropyl-6-(4-(3-methoxypropanoyl)-3-methylpiperazin-1-yl)pyridin-3-yloxy)ethylcarbamate], for which the figures for the IC50 on IDH1 R132H, with HT1080 cells and with U87MG cells were 500 to 1000 nM, 1000 to 10000 nM and 1000 to 10000 nM, respectively.

For the compound `C=Cc1cc(-c2c(C3CC3)nc(N3CCN(C(=O)CC4CCCO4)[C@H](C4CC4)C3)c(C#N)c2C)ccn1` (stereo partly drawn) [Compound 805, 2-cyclopropyl-6-((3R)-3-cyclopropyl-4-(2-(tetrahydrofuran-2-yl)acetyl)piperazin-1-yl)-4-methyl-2′-vinyl-[3,4′-bipyridine]-5-carbonitrile], the 50% inhibitory concentration (IC50) on IDH1 R132H, with HT1080 cells and in the assay on U87MG cells was under 500 nM in each case.

In the case of `COCCC(=O)N1CCN(c2nc(C3CC3)c(-c3cccc(NC(=O)C4(C#N)CC4)c3)cc2C#N)C[C@H]1C` [Compound 425, (R)-1-cyano-N-(3-(5-cyano-2-cyclopropyl-6-(4-(3-methoxypropanoyl)-3-methylpiperazin-1-yl)pyridin-3-yl)phenyl)cyclopropanecarboxamide], the 50% inhibitory concentration (IC50) was in the range of 500 to 1000 nM on IDH1 R132H, 1000 to 10000 nM in the assay with HT1080 cells and 1000 to 10000 nM in the assay with U87MG cells.

Turning to `C=Cc1cc(N(C)c2cc(C#N)c(N3CCN(C(=O)CCOC)[C@H](C)C3)nc2C2CC2)ccn1` [Compound 690, (R)-6-cyclopropyl-2-(4-(3-methoxypropanoyl)-3-methylpiperazin-1-yl)-5-(methyl(2-vinylpyridin-4-yl)amino)nicotinonitrile], the IC50 at IDH1 R132H, in the assay with HT1080 cells and in the assay on U87MG cells was under 500 nM each time.

As for `C=CS(=O)(=O)N(c1cccc(-c2c(C3CC3)nc(N3CCN(C(=O)C4CC4)[C@H](C4CC4)C3)c(C#N)c2C)c1)S(=O)(=O)C=C` [Compound 463, (R)—N-(3-(5-cyano-6-(4-(cyclopropanecarbonyl)-3-cyclopropylpiperazin-1-yl)-2-cyclopropyl-4-methylpyridin-3-yl)phenyl)-N-(vinylsulfonyl)ethenesulfonamide], the results for the IC50 at IDH1 R132H, with HT1080 cells and in the assay with U87MG cells were under 500 nM, 1000 to 10000 nM and 1000 to 10000 nM, respectively.

Turning to `C#Cc1ccnc(N(c2cc(C#C)ccn2)c2cc(C#N)c(N3CCN(C(=O)CCOC)[C@H](C)C3)nc2C2CC2)c1` [Compound 714, (R)-5-(bis(4-ethynylpyridin-2-yl)amino)-6-cyclopropyl-2-(4-(3-methoxypropanoyl)-3-methylpiperazin-1-yl)nicotinonitrile], the IC50 at IDH1 R132H, with HT1080 cells and in the assay on U87MG cells was under 500 nM each time.

For the compound `COCCC(=O)N1CCN(c2nc(C3CC3)c(-c3ccc(CNC(C)=O)cc3)c(C)c2C#N)C[C@H]1C` [Compound 340, (R)—N-(4-{5-cyano-2-cyclopropyl-6-[4-(3-methoxy-propionyl)-3-methyl-piperazin-1-yl]-4-methyl-pyridin-3-yl}-benzyl)-acetamide], the IC50 on IDH1 R132H was under 500 nM; with HT1080 cells it was 500 to 1000 nM; in the assay on U87MG cells, 500 to 1000 nM.

Turning to `C=Cc1cc(Oc2cc(C#N)c(N3CCN(C(=O)CCOC)[C@H](C)C3)nc2C2CC2)ccn1` [Compound 667], the IC50 on IDH1 R132H, with HT1080 cells and in the assay on U87MG cells was under 500 nM in each case.

Regarding `COCCC(=O)N1CCN(c2nc(C3CC3)c(-c3ccnc(Cl)c3)cc2C#N)C[C@H]1C` [Compound 401, (R)-2′-chloro-2-cyclopropyl-6-(4-(3-methoxypropanoyl)-3-methylpiperazin-1-yl)-3,4′-bipyridine-5-carbonitrile], the results for the IC50 at IDH1 R132H, in the assay on HT1080 cells and in the assay on U87MG cells were 500 to 1000 nM, 1000 to 10000 nM and 1000 to 10000 nM, respectively.

As to `C=Cc1cc(-c2c(C3CC3)nc(N3CCN(C(=O)CCC4CCCC4)[C@H](C4CC4)C3)c(C#N)c2C)ccn1` [Compound 797, (R)-6-(4-(3-cyclopentylpropanoyl)-3-cyclopropylpiperazin-1-yl)-2-cyclopropyl-4-methyl-2′-vinyl-3,4′-bipyridine-5-carbonitrile], the IC50 on IDH1 R132H, in the assay on HT1080 cells and with U87MG cells was under 500 nM throughout.

Take `C=Cc1ccc2ccc(Nc3cc(C#N)c(N4CCN(C(=O)CCOC)[C@H](C)C4)nc3C3CC3)cc2n1` [Compound 732, (R)-6-cyclopropyl-2-(4-(3-methoxypropanoyl)-3-methylpiperazin-1-yl)-5-(2-vinylquinolin-7-ylamino) nicotinonitrile]: the IC50 on IDH1 R132H, in the assay on HT1080 cells and in the assay with U87MG cells was under 500 nM throughout.
